Test results: patent US7385027B2, “Membrane-permeable peptide capable of calpain inhibition” (University of Kentucky Research Foundation, priority 2003, dated 2008)

Experiments:
[1] = system: cultured cortical neurons from rat brains; test: Ionomycin-induced cell death of cultured cortical neurons (calcein AM / propidium iodide); assay type: cell-based
Source text: (§1) In the first experiment, cell death of the neurons was induced by exposing the culture to ionomycin. In the second experiment, cell death was induced by exposing the neurons to 30 and 60 mJ/cm^2 of UV light. The exposure to either ionomycin or UV light caused calpain I to be activated because of ionomycin-mediated calcium flux or through UV-induced receptors, channels or pore-like structures. Calcein acetoxymethyl ester was used as indicator of live neuron cells while propidium iodide was used an indicator of dead neuron cells.
In the first experiment, ten Samples were prepared. Sample 1 was a control Sample and included the cultured cortical neurons only. A baseline for the average percentage of cell death was determined to be 19%. In Sample 2, 0.4 μM ionomycin was added to the cultured neuron cells to activate calpain I. No LSEAL was added to these Samples. The addition of ionomycin to these Samples caused the percentage of dead cells to more than triple to an average of 68%. Sample 3 was the same as Sample 2 except that 0.00001 micromolar of LSEAL was added before the ionomycin was added. The percentage of dead cells averaged of 106% of no LSEAL. Sample 4 was the same as Sample 3 except that 0.0001 micromolar of LSEAL was added. The percentage of cell death was 83% of no LSEAL. Sample 5 was the same as Sample 4 except that 0.001 micromolar LSEAL was added. The percentage of cell death was 63% of no LSEAL. Sample 6 was the same as Sample 5 except that 0.01 micromolar LSEAL was added. The percentage of cell death was 61% of no LSEAL. Sample 7 was the same as Sample 6 except that 0.1 micromolar LSEAL was added. The percentage of cell death was 57% of no LSEAL. Sample 8 was the same as Sample 7 except that 1.0 micromolar LSEAL was added. The percentage of cell death was 48% of no LSEAL. Sample 9 was the same as Sample 8 except that 10.0 micromolar LSEAL was added. The percentage of cell death was 35% of no LSEAL. Sample 10 was the same as Sample 9 except that 100 micromolar LSEAL was added. The percentage of cell death was 33% of no LSEAL. […] The results are summarized in Table 1 below and the results are graphically illustrated in FIG. 1

calpain I = biological target: T1, calpain I (Homo sapiens, UniProt P07384); test: Tau protein degradation by calpain I; assay type: biochemical; conditions: 100 μM LSEAL; FIG. 3
T1 sequence (P07384 1-714): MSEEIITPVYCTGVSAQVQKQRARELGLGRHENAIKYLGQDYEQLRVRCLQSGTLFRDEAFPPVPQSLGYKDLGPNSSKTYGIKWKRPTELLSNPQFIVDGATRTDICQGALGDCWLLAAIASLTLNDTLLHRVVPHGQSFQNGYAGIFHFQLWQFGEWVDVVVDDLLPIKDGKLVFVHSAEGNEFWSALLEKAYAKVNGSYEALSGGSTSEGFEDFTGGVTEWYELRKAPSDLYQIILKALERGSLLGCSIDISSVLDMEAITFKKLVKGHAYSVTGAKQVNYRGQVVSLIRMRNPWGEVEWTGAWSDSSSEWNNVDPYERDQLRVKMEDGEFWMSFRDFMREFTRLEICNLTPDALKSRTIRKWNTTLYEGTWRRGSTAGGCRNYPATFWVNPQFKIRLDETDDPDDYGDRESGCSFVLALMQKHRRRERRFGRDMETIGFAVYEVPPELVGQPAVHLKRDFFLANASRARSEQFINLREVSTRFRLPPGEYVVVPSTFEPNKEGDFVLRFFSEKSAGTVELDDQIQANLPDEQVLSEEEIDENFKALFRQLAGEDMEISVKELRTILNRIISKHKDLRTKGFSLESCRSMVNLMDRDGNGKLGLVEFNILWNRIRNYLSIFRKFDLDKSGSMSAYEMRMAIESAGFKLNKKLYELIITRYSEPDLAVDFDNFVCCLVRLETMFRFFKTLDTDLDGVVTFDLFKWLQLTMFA
T1 sequence (P04632 1-268 partner): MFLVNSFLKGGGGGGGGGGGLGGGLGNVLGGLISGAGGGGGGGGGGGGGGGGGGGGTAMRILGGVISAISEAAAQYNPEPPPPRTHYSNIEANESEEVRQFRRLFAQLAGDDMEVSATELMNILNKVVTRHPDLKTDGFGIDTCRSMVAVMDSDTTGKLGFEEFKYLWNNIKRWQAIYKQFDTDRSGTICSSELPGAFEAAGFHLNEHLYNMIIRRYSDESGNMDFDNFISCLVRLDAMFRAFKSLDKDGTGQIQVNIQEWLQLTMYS
Description: Another experiment was conducted to show the effect of the proteins of the present invention on the tau protein. The tau protein is a microtubule-associated protein (MAP). Tau is a well-described calpain I substrate.

[2] = system: cultured cortical neurons from rat brains; test: UV light-induced cell death of cultured cortical neurons; assay type: cell-based; conditions: for Dead Cells / Live Cells: cell count
Source text: as §1
In the second experiment, cell death of the cultured cortical neurons was induced by UV light. […] The percentage of cell death was 18%. Sample 14 is the same as Sample 11, except for the addition of 100 μM LSEAL to the culture. The percentage of cell death was reduced from 18% to 14%. Sample 12 was exposed to 30 mJ/cm^2 of UV light. The percentage of cell death was 58%. The inclusion of the LSEAL before exposure reduced the percentage of cell death to 25%. See Sample 15. […] The data for the experiment is set forth below in Tables 3 and 4, and is graphically illustrated in FIG. 2.

[3] = 0 mJ/cm^2 UV light, LSEAL (Sample 14)
[4] = 30 mJ/cm^2 UV light, LSEAL (Sample 15)
[5] = 60 mJ/cm^2 UV light, LSEAL (Sample 16)

Effect on tau degradation by calpain I (calpain I): inhibits degradation
Substance: Leu-Ser-Glu-Ala-Leu (LSEAL; listed as Homo sapiens)
Percentage Average cell death (ratioed to 0 LSEAL) ([1]; 0.00001 micromolar LSEAL added before 0.4 μM ionomycin (Sample 3)): 106%
Percentage Average cell death (ratioed to 0 LSEAL) ([1]; 0.0001 micromolar LSEAL, 0.4 μM ionomycin (Sample 4)): 83%
Percentage Average cell death (ratioed to 0 LSEAL) ([1]; 0.001 micromolar LSEAL, 0.4 μM ionomycin (Sample 5)): 63%
Percentage Average cell death (ratioed to 0 LSEAL) ([1]; 0.01 micromolar LSEAL, 0.4 μM ionomycin (Sample 6)): 61%
Percentage Average cell death (ratioed to 0 LSEAL) ([1]; 0.1 micromolar LSEAL, 0.4 μM ionomycin (Sample 7)): 57%
Percentage Average cell death (ratioed to 0 LSEAL) ([1]; 1.0 micromolar LSEAL, 0.4 μM ionomycin (Sample 8)): 48%
Percentage Average cell death (ratioed to 0 LSEAL) ([1]; 10.0 micromolar LSEAL, 0.4 μM ionomycin (Sample 9)): 35%
Percentage Average cell death (ratioed to 0 LSEAL) ([1]; 100 micromolar LSEAL, 0.4 μM ionomycin (Sample 10)): 33%
% Dead Cells ([2]; 0 mJ/cm^2 UV light, 100 μM LSEAL (Sample 14), control without LSEAL 18%): 14%
Dead Cells [2, 3]: 5
Live Cells [2, 3]: 30
Dead Cells [2, 4]: 26
Live Cells [2, 4]: 78
% Dead Cells ([2]; 30 mJ/cm^2 UV light, LSEAL included before exposure (Sample 15), control without LSEAL 58%): 25%
Dead Cells [2, 5]: 25
Live Cells [2, 5]: 56
% Dead Cells ([2]; 60 mJ/cm^2 UV light, culture containing LSEAL (Sample 16), control without LSEAL 74%): 30%
